Source: ChEMBL document CHEMBL4184278, “Synthesis and cytotoxicity of novel imidazo[4,5-d]azepine compounds derived from marine natural product ceratamine A” (Bioorg Med Chem Lett, 2018)

What was measured:
Type in all cases: functional, cell-based
HCT-116 = assay: Cytotoxicity against human HCT116 cells assessed as growth inhibition after 72 hrs by MTT assay; conditions: HCT-116, 72 h
HepG2 = assay: Cytotoxicity against human HepG2 cells assessed as growth inhibition after 72 hrs by MTT assay; conditions: HepG2, 72 h
BGC-823 = assay: Cytotoxicity against human BGC823 cells assessed as growth inhibition after 72 hrs by MTT assay; conditions: BGC-823, 72 h
A549 = assay: Cytotoxicity against human A549 cells assessed as growth inhibition after 72 hrs by MTT assay; conditions: A549, 72 h
A2780 = assay: Cytotoxicity against human A2780 cells assessed as growth inhibition after 72 hrs by MTT assay; conditions: A2780, 72 h

SMILES | IC50 (HCT-116) [µM] | IC50 (HepG2) [µM] | IC50 (BGC-823) [µM] | IC50 (A549) [µM] | IC50 (A2780) [µM]
O=C1/C(=C\c2ccccc2)c2c(ncn2COCc2ccccc2)CCN1Cc1ccc(F)cc1 | 11.2 | 39.4 | 72.9 | 19.6 | 24.8
CC(C)(C)c1ccc(CN2CCc3ncn(COCc4ccccc4)c3/C(=C/c3ccccc3)C2=O)cc1 | 8.46 | 18 | 27.8 | 20.6 | 23.9
Cc1cccc(CN2CCc3ncn(COCc4ccccc4)c3/C(=C/c3ccccc3)C2=O)c1 | 3.8 | 34.3 | 14.6 | 16.1 | 26.3
COc1cc(/C=C2\C(=O)N(Cc3ccccc3)CCc3ncn(COCc4ccccc4)c32)cc(OC)c1OC | 8.9 | 10 | 12.9 | 8.56 | 8.97
Cc1cc(C)cc(CN2CCc3ncn(COCc4ccccc4)c3/C(=C/c3ccccc3)C2=O)c1 | 6.23 | 40.9 | 52.6 | 22.5 | 31.3
COc1ccc(CN2CCc3ncn(COCc4ccccc4)c3/C(=C/c3ccccc3)C2=O)cc1 | 31.1 | 44.4 | 71.6 | 46.8 | 43.1
Cc1ccc(CN2CCc3ncn(COCc4ccccc4)c3/C(=C/c3ccccc3)C2=O)cc1 | 7.94 | 44.6 | 39.1 | 11.4 | 21.2
O=C1/C(=C\c2ccccc2)c2c(ncn2COCc2ccccc2)CCN1Cc1ccc(-c2ccccc2)cc1 | 14 | 72.5 | 81 | 18.3 | 48.3
Cc1ccccc1CN1CCc2ncn(COCc3ccccc3)c2/C(=C/c2ccccc2)C1=O | 24.7 | 53.3 | 31.3 | 25.6 | 25.2
O=C1/C(=C\c2ccccc2)c2c(ncn2COCc2ccccc2)CCN1Cc1ccccc1 | 20 | 13.9 | 20.4 | 9.9 | 20.4
O=C1/C(=C\c2ccccc2)c2c(ncn2COCc2ccccc2)CCN1Cc1ccc2ccccc2c1 | 19.4 | 23.7 | 93.3 | 26.4 | 72.8
O=C1/C(=C\c2ccccc2)c2c(ncn2COCc2ccccc2)CCN1Cc1ccc(Cl)cc1 | 10.5 | 47.9 | 75.7 | 11.8 | 22.2
O=C1/C(=C\c2ccccc2)c2[nH]cnc2CCN1Cc1ccccc1 | > 100 | > 100 | > 100 | 51.1 | > 100
O=C1/C(=C\c2ccncc2)c2c(ncn2COCc2ccccc2)CCN1Cc1ccccc1 | 67.1 | > 100 | > 100 | 36 | > 100
O=C1/C(=C\c2ccc(C(F)(F)F)cc2)c2c(ncn2COCc2ccccc2)CCN1Cc1ccccc1 | 36 | 51.4 | 42.6 | 52.5 | 28.2
CNc1nc2ccn(C)c(=O)c(Cc3cc(Br)c(OC)c(Br)c3)c-2n1 [CERATAMINE A] | 12.4 | 7.8 | 20 | 26.8 | 11.2
